Patent publication US20160266093A1, “CELLS HAVING DISRUPTED EXPRESSION OF PROTEINS INVOLVED IN ADME AND TOXICOLOGY PROCESSES” (SIGMA-ALDRICH CO. LLC, priority 2010, published 2016)

Experiments:
[1] = test system: BCRP knockout C2BBe1 cells
Method: The wild-type BCRP gene was knocked out in C2BBe1 cells using zinc finger nuclease technology to generate a stable cell line. Cells were sorted and single cell cloned. Cells were analyzed for the desired mutations and positive clones were chosen for further expansion and analysis. Quantitative PCR was used to evaluate mRNA expression of the cell and compared to wild type cell. Whole cell lysates prepared from these clones were subjected to immunoblotting for analysis of BCRP protein expression level. […] A single BCRP knockout cell clone was selected for functional characterization of efflux activity using several known transporter-selective substrates (e.g. estrone 3-sulfate, digoxin and CDCFDA).
(§1) Both wild type cells (parental C2BBe1 cells) and BCRP knockout cells were seeded onto 24-well transwell plates and cultured for 21 days, following a standard protocol for intestinal efflux transporter assays previously developed using Caco-2 cells. The permeability of test compounds in both the apical to basal (A to B) and basal to apical (B to A) directions was measured following a two hour incubation and the efflux values calculated. […] Digoxin is a known MDR1 substrate, while CDCFDA is selective for the MRP2 transporter. Two additional compounds were used as controls, atenolol and metoprolol, which are known to not be substrates for either of these transporters.
(§2) The BCRP and MDR1 transporter genes were individually knocked out and an MDR1/BCRP double knockout was also generated in C2BBe1 cells using zinc finger nuclease technology. Cells were analyzed and expanded as described above and then tested for functional activity in the standard transwell assay. Two substrates were utilized—estrone 3-sulfate as a selective substrate for BCRP and digoxin as a selective substrate for MDR1. Metoprolol was used as a control.

[2] = test system: MDR1/BCRP double knockout C2BBe1 cells
Method: as §1, §2

[3] = test system: parental C2BBe1 cells (wild type); details: Caco-2
Method: as §1, §2

[4] = test system: MDR1 knockout C2BBe1 cells
Method: as §1, §2

Row | Structure (SMILES) | efflux ratio [1] | efflux ratio in the knockout cells compared to the parental cells [1] | efflux ratio [2] | efflux ratio [3] | efflux ratio [4]
1 | C[C@H]1O[C@@H](O[C@H]2[C@@H](O)C[C@H](O[C@H]3[C@@H](O)C[C@H](O[C@H]4CC[C@@]5(C)[C@H](CC[C@@H]6[C@@H]5C[C@@H](O)[C@]5(C)[C@@H](C7=CC(=O)OC7)CC[C@]65O)C4)O[C@@H]3C)O[C@@H]2C)C[C@H](O)[C@@H]1O [digoxin] | high | unaffected | inhibited | high | inhibited
2 | C[C@]12CC[C@@H]3c4ccc(OS(=O)(=O)O)cc4CC[C@H]3[C@@H]1CCC2=O [estrone 3-sulfate] | inhibited | greatly reduced | inhibited | high | high
